Assay results published in the NIST ThermoML archive (doi:10.1016/j.jct.2018.03.014).

Assay: cn = amount concentration of the nth substance listed, in mol/dm3
Conditions: 298.15 K, 101.3 kPa, Liquid, Taylor dispersion method

## NCC(=O)O [2-aminoacetic acid] + O
c1 = 0.005
  binary diffusion coefficient: 1.06e-09 m2/s
c1 = 0.1
  binary diffusion coefficient: 1.04e-09 m2/s
